From US8975406B2, “Compound useful for the treatment of degenerative and inflammatory diseases” (Galapagos N.V., priority 2011, dated 2015)

Experiments:
Type in all cases: biochemical
Recombinant human JAK2 = target: T1, Recombinant human JAK2 (Homo sapiens, UniProt O60674); assay: JAK2 Ulight-JAK1 peptide assay; conditions: Ulight-JAK1(tyr1023) peptide, 7.5 μM ATP
T1 construct: catalytic domain (amino acids 808-1132; catalog number PV4210); GST; purchased Invitrogen PV4210
Summary of the method: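 JAK2 catalytic domain ([…]), 0.0125 mU, with 25 nM Ulight-JAK1(tyr1023) peptide, 7.5 μM ATP, HEPES pH7.0, 60 min at room temperature; stopped with EDTA and Eu-anti-phosphotyrosine, TR-FRET read at 615 nm. Inhibition normalised to vehicle and 10 μM staurosporine; IC50 from 10-point ⅕ dilutions from 20 μM, 1% DMSO.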

Recombinant human JAK1 = target: T2, Recombinant human JAK1 (Homo sapiens, UniProt P23458); assay: JAK1 Ulight-JAK1 peptide assay; conditions: Ulight-JAK1(tyr1023) peptide, 7 μM ATP
T2 construct: catalytic domain (amino acids 866-1154; catalog number PV4774); purchased Invitrogen PV4774
Summary of the method: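 TR-FRET assay: recombinant human JAK1 catalytic domain (aa 866-1154, 1 ng) phosphorylates 20 nM Ulight-JAK1(tyr1023) peptide at 7 μM ATP in MOPS pH 6.8 buffer, 1% DMSO, for 60 min at room temperature. Eu-anti-phosphotyrosine detection follows EDTA stop. IC50 comes from 10-point ⅕ dilutions from 20 μM, normalized to 10 μM staurosporine.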

[1] = target: T3, Recombinant human JAK3 catalytic domain (Homo sapiens, UniProt P52333); assay: JAK3 inhibition assay; conditions: polyGT substrate, 33P-gamma-ATP filter assay, 1 μM ATP
T3 construct: catalytic domain (amino acids 795-1124; catalog number 08-046); purchased Carna Biosciences 08-046
Summary of the method: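 Kinase domain aa 795-1124 with polyGT substrate, 1 μM ATP plus ^33P-γ-ATP, pH 7.5 Tris buffer, 1% DMSO; 45 min at 30° C. Filter-bound radioactivity counted, inhibition normalised to vehicle and 10 μM staurosporine. IC50 from 10-point 1/5 dilutions, top concentration usually 20 μM.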

T1 sequence (O60674 808-1132): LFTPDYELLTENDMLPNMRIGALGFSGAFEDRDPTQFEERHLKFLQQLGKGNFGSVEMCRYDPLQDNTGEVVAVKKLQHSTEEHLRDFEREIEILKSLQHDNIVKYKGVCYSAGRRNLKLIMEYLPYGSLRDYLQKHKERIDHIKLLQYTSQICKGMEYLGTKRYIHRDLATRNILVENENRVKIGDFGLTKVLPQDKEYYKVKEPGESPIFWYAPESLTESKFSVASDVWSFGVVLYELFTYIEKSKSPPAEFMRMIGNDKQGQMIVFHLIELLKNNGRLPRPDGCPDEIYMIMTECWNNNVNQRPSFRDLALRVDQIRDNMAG
T2 sequence (P23458 866-1154): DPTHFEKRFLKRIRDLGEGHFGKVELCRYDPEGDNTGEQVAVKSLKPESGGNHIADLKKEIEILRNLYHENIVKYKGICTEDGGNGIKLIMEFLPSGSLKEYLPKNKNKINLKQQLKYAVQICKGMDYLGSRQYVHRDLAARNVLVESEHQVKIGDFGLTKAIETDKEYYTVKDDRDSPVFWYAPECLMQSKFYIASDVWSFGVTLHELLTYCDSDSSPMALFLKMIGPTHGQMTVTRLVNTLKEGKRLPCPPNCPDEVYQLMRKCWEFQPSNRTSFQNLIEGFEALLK
T3 sequence (P52333 795-1124): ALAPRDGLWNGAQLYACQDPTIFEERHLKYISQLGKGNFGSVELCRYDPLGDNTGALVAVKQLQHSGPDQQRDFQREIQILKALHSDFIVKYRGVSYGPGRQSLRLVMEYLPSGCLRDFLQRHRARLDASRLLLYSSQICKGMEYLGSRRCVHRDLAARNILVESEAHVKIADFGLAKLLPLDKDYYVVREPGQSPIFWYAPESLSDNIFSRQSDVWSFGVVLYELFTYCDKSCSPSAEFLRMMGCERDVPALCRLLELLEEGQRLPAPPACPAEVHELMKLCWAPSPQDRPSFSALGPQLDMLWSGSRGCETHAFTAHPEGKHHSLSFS

IC50 (Recombinant human JAK2) | IC50 (Recombinant human JAK1) | IC50 [1] | Structure (SMILES)
0.01 to 100 nM | 101 to 500 nM | 501 to 1000 nM | CC(=O)Nc1cc2c(-c3ccc(CC(=O)N4COCC4(C)C)cc3)cccn2n1 [Compound 38, N-(4-(4-(2-(4,4-dimethyloxazolidin-3-yl)-2-oxoethyl)phenyl)pyrazolo[1,5-a]pyridin-2-yl)acetamide]
0.01 to 100 nM | 0.01 to 100 nM | 0.01 to 100 nM | CC(c1ccc(-c2cccn3nc(NC(=O)C4CC4)cc23)cc1)N1CCN(S(C)(=O)=O)CC1 (stereo not drawn) [Compound 43, N-(4-(4-(1-(4-(methylsulfonyl)piperazin-1-yl)ethyl)phenyl)pyrazolo[1,5-a]pyridin-2-yl)cyclopropanecarboxamide]
0.01 to 100 nM | 0.01 to 100 nM | 0.01 to 100 nM | C[C@@H]1CN(S(C)(=O)=O)CCN1Cc1ccc(-c2cccn3nc(NC(=O)C4CC4)cc23)cc1 [Compound 44, (R)-N-(4-(4-((2-methyl-4-(methylsulfonyl)piperazin-1-yl)methyl)phenyl)pyrazolo[1,5-a]pyridin-2-yl)cyclopropanecarboxamide]
0.01 to 100 nM | 0.01 to 100 nM | 101 to 500 nM | CC(=O)Nc1cc2c(-c3ccc(C(C)N4CCN(S(C)(=O)=O)CC4)cc3)cccn2n1 (stereo not drawn) [Compound 45, N-(4-(4-(1-(4-(methylsulfonyl)piperazin-1-yl)ethyl)phenyl)pyrazolo[1,5-a]pyridin-2-yl)acetamide]
0.01 to 100 nM | 0.01 to 100 nM | 0.01 to 100 nM | C[C@H](c1ccc(-c2cccn3nc(NC(=O)C4CC4)cc23)cc1)N1CCN(S(C)(=O)=O)CC1 [Compound 46, (R)-N-(4-(4-(1-(4-(methylsulfonyl)piperazin-1-yl)ethyl)phenyl)pyrazolo[1,5-a]pyridin-2-yl)cyclopropanecarboxamide]
0.01 to 100 nM | 0.01 to 100 nM | 0.01 to 100 nM | C[C@@H](c1ccc(-c2cccn3nc(NC(=O)C4CC4)cc23)cc1)N1CCN(S(C)(=O)=O)CC1 [Compound 47, (S)-N-(4-(4-(1-(4-(methylsulfonyl)piperazin-1-yl)ethyl)phenyl)pyrazolo[1,5-a]pyridin-2-yl)cyclopropanecarboxamide]
101 to 500 nM | 0.01 to 100 nM | 0.01 to 100 nM | O=C(Nc1cc2c(-c3ccc(CN4CCCCC45COC5)cc3)cccn2n1)C1CC1 [Compound 48, N-(4-(4-(2-oxa-5-azaspiro[3.5]nonan-5-ylmethyl)phenyl)pyrazolo[1,5-a]pyridin-2-yl)cyclopropanecarboxamide]
> 1000 nM | 0.01 to 100 nM | 0.01 to 100 nM | CS(=O)(=O)N1CC[C@@H](Oc2ccc(-c3cccn4nc(NC(=O)C5CC5)cc34)cc2)C1 [Compound 49, (R)-N-(4-(4-(1-(methylsulfonyl)pyrrolidin-3-yloxy)phenyl)pyrazolo[1,5-a]pyridin-2-yl)cyclopropanecarboxamide]
